Tests used:
human red blood cells = test: PC biosynthesis of human RBC's; format: cell-based; conditions: for PC biosynthesis percent of control ± SEM: 30 minutes incubation, 100 mM ethanol, 1 mM APAP, 1 mM THC, 10 mM allyl alcohol, 1 mM cocaine, 1 mM BTM, with and without 4-MP
cultured astrocyte = test: Cultured astrocyte PC biosynthesis; format: cell-based; conditions: for PC biosynthesis, Percent control of + SEM: cultured astrocytes, 100 mM ethanol, 1 mM APAP, 1 mM THC, 1 mM 4-MP, alone or combined
human liver cells = test: PC biosynthesis of human liver cells (labeled choline incorporation into PC); format: cell-based; conditions: for Alteration in cellular PC biosynthesis: human liver cells incubated 90 minutes, 100 mM ethanol or 1 mM acetaminophen
Method: (§1) PC biosynthesis in cultured cells: Aliquots (0.01 ml) of DMSO and water or DMSO and water containing various agents were added to medium with 2-hour monolayers of cells. After the appropriate agent-incubation period, a 0.02 ml aliquot of [^3H]-choline (0.2 μCi and 15 pmoles of choline]) was added to Waymouth 752/1 {1.25 ml} media. Incubations were stopped after 90 minutes by addition of 2 ml of methanol containing 1% 1N HCl. Cells were removed from the culture dishes by scraping with TEFLON™-coated spatula and placed in glass test tubes. (Lamb, et al., Hepatology 19: 174 (1994))
(§2) PC extraction procedure: Two ml of chloroform and 0.5 ml of water were added to each sample. Tubes were vortexed and centrifuged for 5 minutes to clear the upper and lower phases. The upper phase was aspirated and the lower phase washed by adding 2 ml of wash solution containing 50% methanol, 45% water and 5% 7.4% KCl. The samples were vortexed and centrifuged 5 minutes to clear the upper and lower phases. The upper phase was aspirated and the lower phase was washed again in 2 ml wash solution. After the phases were cleared by centrifugation, the lower phase was carefully removed, placed in a glass test tube, dried, solubilized in scintillation fluid and counted in a Beckman beta counter. Agent-induced alterations in the incorporation of labeled choline into PC was used as a measure of changes in cellular PC biosynthesis.
PC biosynthesis in isolated cells: Aliquots (0.75 ml) of Waymouth 752/1 media were placed in glass test tubes. Aliquots (0.01) of DMSO and water or DMSO and water containing various test agents were added to the tubes along with 0.02 ml [^3H]-choline [0.2 μCi and 15 pmoles choline]. Incubations were started by adding 0.5 ml aliquotes of cells suspended in Waymouth 752/1 media to the test tubes and placing the tubes in a shaking water bath at 37° C. Incubations were stopped after the appropriate incubation period (2-90 minutes) by addition of 2 ml of methanol containing 1% 1N HCl. Labeled PC was extracted by methods described above for cultured cells. […]

cultured hepatocytes = test: PC biosynthesis in primary cultures of adult rat hepatocytes, 72 h incubation; format: cell-based; conditions: for Effect on the ethanol/acetaminophen-induced decrease in cellular PC biosynthesis / Change in cellular PC biosynthesis: 72 hours; for Effect on the ethanol/acetaminophen-induced decrease in cellular PC biosynthesis: co-incubation with 100 mM ethanol or 1 mM acetaminophen; for Change in cellular PC biosynthesis: 100 mM ethanol, 1 mM acetaminophen
Method: Male sprague Dawley rats (Zivic-Miller) weighing 200 to 350 grams were treated with a 50 mg/kg dose of phenobarbital (ip) for 3 days prior to perfusion. During this 3 day period, the animals were also given water ad libitum containing 0.1% sodium phenobarbital. The animal was anesthetized with ether under a fume hood, then transferred to the surgical table with the abdomen exposed. The belly was shaved and cleansed with 70% ethanol and Clinidine. The abdominal skin was removed with scissors and forceps. An incision was made along the base of the abdomen and the renal artery was tied off.
After the hepatic vein was cannulated with a 16 gauge catheter, the liver was washed with a balanced salt solution containing EDTA and Tricine. The hepatic artery was cannulated with a 16 gauge catheter. After 5 minutes of reverse flow perfusion was practiced to facilitate the wash cycle. After the blood is washed from the liver, the color of the liver changes from deep red to a brownish color.
The liver was then infused with Collagenase solution (112.5 mg/300 ml of Waymouth 752/1 media) bubbled with 5% CO2. After 5 minutes, reverse flow of Collagenase into the liver was accomplished, followed by reverse to normal flow after 5 minutes. Normal flow was continued until liver tissue was breaking down and ready for collection. Complete liver wash and perfusion should take about 30 minutes.
The perfused liver was collected with a strainer and transferred to an Erlenmeyer flask containing 50 ml of original Collagenase solution. The liver was minced using a gyratory water bath at 37° C. and allowed to swirl for no longer than 15 minutes. The solution was then filtered through a sterile gauze into centrifuge tubes and spun in a table top centrifuge for 5 minutes at 1000 rpm. (70×g). Aspirate media and suspended cells were placed in Waymouth 752/1 media containing 20% isodensity Percol and were then centrifuged for 4 minutes at 70×g. Cells were washed three times and resuspended in Waymouth 752/1 media. Samples of 0.5 ml were plated on 35 mm collagen-coated plastic culture dishes containing 0.75 ml of supplemented Waymouth 752/1 media.
as §1, §2

rat liver cells = test: PC biosynthesis of rat liver cells (labeled choline incorporation into PC); format: cell-based; conditions: for Alteration in cellular PC biosynthesis: rat liver cells incubated 90 minutes, 100 mM ethanol or 1 mM acetaminophen
erythrocytes [1] = test: PC biosynthesis in cells isolated from rat blood (erythrocytes); format: cell-based; conditions: 1 mM APAP, 30 minutes
Method: Preparation of red cell fractions: Rat or human blood was placed in Sorval tubes and, centrifuged at 3000 rpm for 10 minutes under refrigeration. The supernate was removed and the pellet of RBC's resuspended in PBS at 4 times the volume of the supernate. This may be frozen in 2 ml aliquots at −70° C.

[2] = tested on: cells isolated from rat intestine; test: PC biosynthesis in cells isolated from rat intestine; format: cell-based; conditions: 1 mM APAP, 30 minutes
[3] = tested on: cells isolated from rat lung; test: PC biosynthesis in cells isolated from rat lung; format: cell-based; conditions: 1 mM APAP, 30 minutes
rat red blood cells = test: Rat RBC PC biosynthesis; format: cell-based; conditions: rat RBC's, 10 minutes incubation
cultured rat liver cells = test: PC biosynthesis of cultured rat liver cells from 3 and 20 month-old rats, 24 h; format: cell-based; conditions: 1 mM APAP, 100 mM ETOH, mean ± SEM of nine values; for PC biosynthesis, 3 Month: cells from 3 month-old male rats; for PC biosynthesis, 20 Month: cells from 20 month-old male rats
Method: as §1, §2

brain cell fractions = test: PC biosynthesis of brain cell fractions; format: cell-based; conditions: brain cell fractions incubated 30 minutes; agent concentration (100 mM ethanol, 1 mM others)
Method: as §2
PC biosynthesis in isolated cells: Aliquots (0.75 ml) of Waymouth 752/1 media were placed in glass test tubes. Aliquots (0.01) of DMSO and water or DMSO and water containing various test agents were added to the tubes along with 0.02 ml [^3H]-choline [0.2 μCi and 15 pmoles choline]. Incubations were started by adding 0.5 ml aliquotes of cells suspended in Waymouth 752/1 media to the test tubes and placing the tubes in a shaking water bath at 37° C. Incubations were stopped after the appropriate incubation period (2-90 minutes) by addition of 2 ml of methanol containing 1% 1N HCl. Labeled PC was extracted by methods described above for cultured cells. Agent-induced increases in the incorporation of labeled choline into PC were used to measure increases in cellular PC biosynthesis.
Cells were isolated from brain homogenates according to the methods described in the methodology section under “PC biosynthesis in isolated cells”.

erythrocytes [4] = conditions: Ferrali, et al, Biochem Pharm. 38, 1819-1825 (1989); cited from earlier work
cultured liver cells = test: PC biosynthesis of cultured liver cells incubated 24 and 72 hours with and without vitamin E phosphate; format: cell-based; conditions: 24 and 72 hours with and without 50 μM vitamin E phosphate
Method: After the appropriate agent-incubation period, a 0.02 ml aliquot of [^3H]-choline (0.2 μCi and 15 pmoles of choline]) was added to Waymouth 752/1 {1.25 ml} media. […] Cells were removed from the culture dishes by scraping with TEFLON™-coated spatula and placed in glass test tubes. (Lamb, et al., Hepatology 19: 174 (1994))
Alterations in PC biosynthesis were studied using cultured liver cells incubated 24 and 72 hours with and without 50 μM vitamin E phosphate (VEP).

Molecule: Cc1cn[nH]c1 [4-MP, 4-methylpyrazole]
- Effect on drug-induced increases in PC biosynthesis (human red blood cells; 30 minutes, 4-MP added to each agent): significantly (p<0.05) reduces
- Effect on agent-induced increase in PC biosynthesis (cultured astrocyte; 1 mM 4-MP with ethanol, APAP, THC or combinations): Å values without 4-MP are significantly increased (p < 0.05) above controls. 4-MP significantly reduced (p < 0.05) the agent-induced increase in PC biosynthesis.
- Effect on ethanol and acetaminophen-induced increases in cellular PC biosynthesis (human liver cells; 1 mM 4-methylpyrazole, 90 minutes, with 100 mM ethanol or 1 mM acetaminophen): significantly decreases
- Effect on the ethanol/acetaminophen-induced decrease in cellular PC biosynthesis (cultured hepatocytes): reduced
- Effect on ethanol-induced and acetaminophen-induced increases in cellular biosynthesis (rat liver cells; 4-methylpyrazole, 90 minutes, with 100 mM ethanol or 1 mM acetaminophen): significantly reduced

Molecule: CC(=O)Nc1ccc(O)cc1 [APAP, acetaminophen]
- PC biosynthesis percent of control ± SEM, erythrocytes (erythrocytes [1]): 236 ± 13% of control
- PC biosynthesis percent of control ± SEM, intestine [2]: 287 ± 13% of control
- PC biosynthesis percent of control ± SEM (human red blood cells): 512 ± 27% of control
- PC biosynthesis, Percent control of + SEM (cultured astrocyte): 159 ± 15 Percent control
- PC biosynthesis percent of control ± SEM, lung [3]: 471 ± 38% of control
- Alteration in cellular PC biosynthesis (human liver cells): significantly (p<0.05) increase
- Change in cellular PC biosynthesis (cultured hepatocytes): significant decrease
- PC biosynthesis % of Control ± SEM (rat red blood cells): 655 ± 26 % of Control
- Alteration in cellular PC biosynthesis (rat liver cells): significantly (p<0.05) increased
- PC biosynthesis, 3 Month (cultured rat liver cells): 137 ± 11% of control
- PC biosynthesis, 20 Month (cultured rat liver cells): 38 ± 2% of control

Molecule: ClC(Cl)(Cl)Br [BTM, bromotrichloromethane]
- PC biosynthesis percent of control ± SEM (human red blood cells): 728 ± 3% of control
- PC biosynthesis % of Control ± SEM (rat red blood cells): 533 ± 29 % of Control
- Agent-induced alterations in PC biosynthesis, Percent control of + SEM (brain cell fractions): 194 ± 25 Percent control

Molecule: O=S(=O)([O-])[O-].[Fe+2] [FeSO4]
- Agent-induced alterations in PC biosynthesis, Percent control of + SEM (brain cell fractions): 226 ± 8 Percent control

Molecule: CCCCCc1cc(O)c2c(c1)OC(C)(C)[C@@H]1CCC(C)=C[C@@H]21 [THC, Δ-9-tetrahydrocannabinol]
- PC biosynthesis percent of control ± SEM (human red blood cells): 433 ± 30% of control
- PC biosynthesis, Percent control of + SEM (cultured astrocyte): 201 ± 11 Percent control
- PC biosynthesis % of Control ± SEM (rat red blood cells): 1142 ± 65 % of Control
- Agent-induced alterations in PC biosynthesis, Percent control of + SEM (brain cell fractions): 293 ± 21 Percent control

Molecule: Cc1c(C)c2c(c(C)c1OC(=O)CCC(=O)O)CC[C@@](C)(CCC[C@H](C)CCC[C@H](C)CCCC(C)C)O2 [VES, vitamin E succinate]
- Effect on the ethanol/acetaminophen-induced decrease in cellular PC biosynthesis (cultured hepatocytes): reduced

Molecule: C=CC=O [acreolein]
- Adverse effects on erythrocytes (erythrocytes [4]): deleterious effects on the cells

Molecule: C=CC(=O)O [acrylic acid]
- Adverse effects on erythrocytes (erythrocytes [4]): could not demonstrate the adverse effects

Molecule: C=CCO [allyl alcohol]
- PC biosynthesis percent of control ± SEM (human red blood cells): 377 ± 3% of control
- PC biosynthesis % of Control ± SEM (rat red blood cells): 1315 ± 99 % of Control
- Adverse effects on erythrocytes (erythrocytes [4]): could not demonstrate the adverse effects

Molecule: COC(=O)[C@H]1[C@@H](OC(=O)c2ccccc2)C[C@@H]2CC[C@H]1N2C [cocaine]
- PC biosynthesis percent of control ± SEM (human red blood cells): 292 ± 10% of control
- PC biosynthesis % of Control ± SEM (rat red blood cells): 458 ± 7 % of Control

Molecule: CCO [ethanol]
- PC biosynthesis percent of control ± SEM (human red blood cells): 222 ± 9% of control
- PC biosynthesis, Percent control of + SEM (cultured astrocyte): 199 ± 14 Percent control
- Alteration in cellular PC biosynthesis (human liver cells): significantly (p<0.05) increase
- PC biosynthesis (cultured hepatocytes; 72 h, 100 mM ETOH, 1 mM APAP, 0.5 mM 4-MP, 200 units SOD, 800 units CAT, 2 mM DEF, 0.025 mM 20:4, 0.25 mM 16:0, 6-9 experimental values): 39 ± 2% of control
- Change in cellular PC biosynthesis (cultured hepatocytes): significant decrease
- PC biosynthesis % of Control ± SEM (rat red blood cells): 374 ± 19 % of Control
- Alteration in cellular PC biosynthesis (rat liver cells): significantly (p<0.05) increased
- Agent-induced alterations in PC biosynthesis, Percent control of + SEM (brain cell fractions): 173 ± 8 Percent control
- PC biosynthesis, 3 Month (cultured rat liver cells): 147 ± 13% of control
- PC biosynthesis, 20 Month (cultured rat liver cells): 59 ± 1% of control

Molecule: Cc1c(C)c2c(c(C)c1OP(=O)(O)O)CCC(C)(CCCC(C)CCCC(C)CCCC(C)C)O2 (stereo not drawn) [vitamin E phosphate]
- Alterations in PC biosynthesis (cultured liver cells): incubation time-dependent decreases in PC biosynthesis unless vitamin E phosphate was added

Molecule: iron
- PC biosynthesis % of Control ± SEM (rat red blood cells): 919 ± 73 % of Control

B1: CAT: catalase (protein, UniProt P00432 2-527, looked up)
Catalase: ADNRDPASDQMKHWKEQRAAQKPDVLTTGGGNPVGDKLNSLTVGPRGPLLVQDVVFTDEMAHFDRERIPERVVHAKGAGAFGYFEVTHDITRYSKAKVFEHIGKRTPIAVRFSTVAGESGSADTVRDPRGFAVKFYTEDGNWDLVGNNTPIFFIRDALLFPSFIHSQKRNPQTHLKDPDMVWDFWSLRPESLHQVSFLFSDRGIPDGHRHMNGYGSHTFKLVNANGEAVYCKFHYKTDQGIKNLSVEDAARLAHEDPDYGLRDLFNAIATGNYPSWTLYIQVMTFSEAEIFPFNPFDLTKVWPHGDYPLIPVGKLVLNRNPVNYFAEVEQLAFDPSNMPPGIEPSPDKMLQGRLFAYPDTHRHRLGPNYLQIPVNCPYRARVANYQRDGPMCMMDNQGGAPNYYPNSFSAPEHQPSALEHRTHFSGDVQRFNSANDDNVTQVRTFYLKVLNEEQRKRLCENIAGHLKDAQLFIQKKAVKNFSDVHPEYGSRIQALLDKYNEEKPKNAVHTYVQHGSHLSAREKANL
- Effect on the ethanol/acetaminophen-induced decrease in cellular PC biosynthesis (cultured hepatocytes): reduced
